{
  "source": "patent US6410558B1",
  "about": "“Fungicides for the control of take-all disease of plants” (Monsanto Technology LLC, priority 1991, dated 2002)",
  "key": {"[1]": {"tested_on": "Gaeumannomyces graminis var. tritici (Ggt)", "test": "In vitro Assay: mycelial growth of Ggt on minimal media agar plates containing test compound", "type": "cell-based", "conditions": "Gaeumannomyces graminis, dark, 19-20° C., 4 to 5 days, diameter of mycelial growth; for inhibition at 0.1 ppm: 0.1 ppm in minimal media agar, read-out: In vitro (ppm) 0.1, Percent Inhibition; for inhibition at 1 ppm: 1 ppm in minimal media agar, read-out: In vitro (ppm) 1, Percent Inhibition; for inhibition at 10 ppm: 10 ppm in minimal media agar, read-out: In vitro (ppm) 10, Percent Inhibition", "in_short": "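Ggt mycelial diameter read after 4 to 5 days in darkness at 19-20° C, from three 4-mm plugs placed on Czapek Dox minimal agar containing test compound delivered in acetone. Inhibition expressed as percent versus untreated plates, plug size (4 mm) subtracted from both.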"}, "Ggt": {"tested_on": "Ggt", "test": "In vivo Assay: control of Ggt on wheat grown in pots of Ggt-infested soil, root disease rating", "set-up": "species or system Gaeumannomyces graminis var. tritici", "conditions": "Gaeumannomyces graminis, 672 h; 0.5 mg active ingredient per pot; 'Bergen' or 'Anza' wheat in Ggt-infested soil; after four weeks; vs untreated control; read-out: In vivo, percent disease control", "in_short": "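Wheat ('Bergen' or 'Anza') seeds in soil infested with Ggt-colonised oats (4% v/v) treated at 0.5 mg active ingredient per pot in acetone/water with Tween 20; five pots per treatment. After four weeks, seminal roots rated 0–5; trimmed mean of three replicates converted to percent disease control versus untreated.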"}},
  "data": [
    {"smiles": "CCNC(=O)c1c([Si](C)(C)C)ccc([N+](=O)[O-])c1Cl", "note": "[Example 216, 2-Chloro-N-ethyl-3-nitro-6-(trimethylsilyl)benzamide]", "values": [
      {"measurement": "inhibition at 0.1 ppm", "setting": "[1]", "value": 25, "unit": "%"},
      {"measurement": "inhibition at 1 ppm", "setting": "[1]", "value": 54, "unit": "%"},
      {"measurement": "inhibition at 10 ppm", "setting": "[1]", "value": 92, "unit": "%"},
      {"measurement": "pest or weed control at 0.5 mg/pot", "setting": "Ggt", "value": 68, "unit": "%"}
    ]},
    {"smiles": "CCNC(=O)c1cc(N)ccc1[Si](C)(C)C", "note": "[Example 217, 5-Amino-N-ethyl-2-(trimethylsilyl)benzamide]", "values": [
      {"measurement": "inhibition at 0.1 ppm", "setting": "[1]", "value": 16, "unit": "%"},
      {"measurement": "inhibition at 1 ppm", "setting": "[1]", "value": 68, "unit": "%"},
      {"measurement": "inhibition at 10 ppm", "setting": "[1]", "value": 100, "unit": "%"},
      {"measurement": "pest or weed control at 0.5 mg/pot", "setting": "Ggt", "value": 0, "unit": "%"}
    ]},
    {"smiles": "CCNC(=O)c1c([Si](C)(C)C)ccc(Cl)c1F", "note": "[Example 218, 3-Chloro-N-ethyl-2-fluoro-6-(trimethylsilyl)benzamide]", "values": [
      {"measurement": "inhibition at 0.1 ppm", "setting": "[1]", "value": 18, "unit": "%"},
      {"measurement": "inhibition at 1 ppm", "setting": "[1]", "value": 94, "unit": "%"},
      {"measurement": "inhibition at 10 ppm", "setting": "[1]", "value": 100, "unit": "%"},
      {"measurement": "pest or weed control at 0.5 mg/pot", "setting": "Ggt", "value": 99, "unit": "%"}
    ]},
    {"smiles": "CCNC(=O)c1c([Si](C)(C)C)ccc(OC)c1Cl", "note": "[Example 219, 2-Chloro-N-ethyl-3-methoxy-6-(trimethylsilyl)benzamide]", "values": [
      {"measurement": "inhibition at 0.1 ppm", "setting": "[1]", "value": 50, "unit": "%"},
      {"measurement": "inhibition at 1 ppm", "setting": "[1]", "value": 94, "unit": "%"},
      {"measurement": "inhibition at 10 ppm", "setting": "[1]", "value": 100, "unit": "%"},
      {"measurement": "pest or weed control at 0.5 mg/pot", "setting": "Ggt", "value": 97, "unit": "%"}
    ]},
    {"smiles": "CCNC(=O)c1c([Si](C)(C)C)ccc(Br)c1Cl", "note": "[Example 220, 3-Bromo-2-chloro-N-ethyl-6-(trimethylsilyl)benzamide]", "values": [
      {"measurement": "inhibition at 0.1 ppm", "setting": "[1]", "value": 75, "unit": "%"},
      {"measurement": "inhibition at 1 ppm", "setting": "[1]", "value": 100, "unit": "%"},
      {"measurement": "inhibition at 10 ppm", "setting": "[1]", "value": 100, "unit": "%"},
      {"measurement": "pest or weed control at 0.5 mg/pot", "setting": "Ggt", "value": 97, "unit": "%"}
    ]},
    {"smiles": "CCNC(=O)c1c([Si](C)(C)C)ccc(C=O)c1Cl", "note": "[Example 223, 2-Chloro-N-ethyl-3-formyl-6-(trimethylsilyl)benzamide]", "values": [
      {"measurement": "inhibition at 0.1 ppm", "setting": "[1]", "value": 48, "unit": "%"},
      {"measurement": "inhibition at 1 ppm", "setting": "[1]", "value": 93, "unit": "%"},
      {"measurement": "inhibition at 10 ppm", "setting": "[1]", "value": 96, "unit": "%"},
      {"measurement": "pest or weed control at 0.5 mg/pot", "setting": "Ggt", "value": 82, "unit": "%"}
    ]},
    {"smiles": "CCNC(=O)c1c([Si](C)(C)C)ccc(C(F)F)c1Cl", "note": "[Example 224, 2-Chloro-3-(difluoromethyl)-N-ethyl-6-(trimethylsilyl)benzamide]", "values": [
      {"measurement": "inhibition at 0.1 ppm", "setting": "[1]", "value": "< 0", "unit": "%"},
      {"measurement": "inhibition at 1 ppm", "setting": "[1]", "value": 27, "unit": "%"},
      {"measurement": "inhibition at 10 ppm", "setting": "[1]", "value": 93, "unit": "%"},
      {"measurement": "pest or weed control at 0.5 mg/pot", "setting": "Ggt", "value": 21, "unit": "%"}
    ]},
    {"smiles": "CCNC(=O)c1c([Si](C)(C)C)ccc(CO)c1Cl", "note": "[Example 227, 2-Chloro-N-ethyl-3-(hydroxymethyl)-6-(trimethylsilyl)benzamide]", "values": [
      {"measurement": "inhibition at 0.1 ppm", "setting": "[1]", "value": 36, "unit": "%"},
      {"measurement": "inhibition at 1 ppm", "setting": "[1]", "value": 68, "unit": "%"},
      {"measurement": "inhibition at 10 ppm", "setting": "[1]", "value": 100, "unit": "%"},
      {"measurement": "pest or weed control at 0.5 mg/pot", "setting": "Ggt", "value": 34, "unit": "%"}
    ]},
    {"smiles": "CCNC(=O)c1c([Si](C)(C)C)ccc(CF)c1Cl", "note": "[Example 228, 2-Chloro-N-ethyl-3-(fluoromethyl)-6-(trimethylsilyl)benzamide]", "values": [
      {"measurement": "inhibition at 0.1 ppm", "setting": "[1]", "value": "< 0", "unit": "%"},
      {"measurement": "inhibition at 1 ppm", "setting": "[1]", "value": 87, "unit": "%"},
      {"measurement": "inhibition at 10 ppm", "setting": "[1]", "value": 96, "unit": "%"},
      {"measurement": "pest or weed control at 0.5 mg/pot", "setting": "Ggt", "value": 84, "unit": "%"}
    ]},
    {"smiles": "CCNC(=O)c1c(Cl)ccc(Br)c1[Si](C)(C)C", "note": "[Example 232, 3-Bromo-6-chloro-N-ethyl-2-(trimethylsilyl)benzamide]", "values": [
      {"measurement": "inhibition at 0.1 ppm", "setting": "[1]", "value": 92, "unit": "%"},
      {"measurement": "inhibition at 1 ppm", "setting": "[1]", "value": 97, "unit": "%"},
      {"measurement": "inhibition at 10 ppm", "setting": "[1]", "value": 95, "unit": "%"},
      {"measurement": "pest or weed control at 0.5 mg/pot", "setting": "Ggt", "value": 78, "unit": "%"}
    ]},
    {"smiles": "CCNC(=O)c1sc([Si](C)(C)C)cc1[Si](C)(C)C", "note": "[Example 249, N-Ethyl-3,5-bis(trimethylsilyl)-2-thiophenecarboxamide]", "values": [
      {"measurement": "inhibition at 0.1 ppm", "setting": "[1]", "value": 17, "unit": "%"},
      {"measurement": "inhibition at 1 ppm", "setting": "[1]", "value": 48, "unit": "%"},
      {"measurement": "inhibition at 10 ppm", "setting": "[1]", "value": 100, "unit": "%"},
      {"measurement": "pest or weed control at 0.5 mg/pot", "setting": "Ggt", "value": 60, "unit": "%"}
    ]},
    {"smiles": "CCNC(=O)c1sc(Cl)cc1[Si](C)(C)C", "note": "[Example 254, 5-Chloro-N-ethyl-3-(trimethylsilyl)-2-thiophenecarboxamide]", "values": [
      {"measurement": "inhibition at 0.1 ppm", "setting": "[1]", "value": 97, "unit": "%"},
      {"measurement": "inhibition at 1 ppm", "setting": "[1]", "value": 97, "unit": "%"},
      {"measurement": "inhibition at 10 ppm", "setting": "[1]", "value": 100, "unit": "%"},
      {"measurement": "pest or weed control at 0.5 mg/pot", "setting": "Ggt", "value": 40, "unit": "%"}
    ]},
    {"smiles": "CCNC(=O)c1sc(Br)cc1[Si](C)(C)C", "note": "[Example 266, 5-Bromo-N-ethyl-3-(trimethylsilyl)-2-thiophenecarboxamide]", "values": [
      {"measurement": "inhibition at 0.1 ppm", "setting": "[1]", "value": 21, "unit": "%"},
      {"measurement": "inhibition at 1 ppm", "setting": "[1]", "value": 61, "unit": "%"},
      {"measurement": "inhibition at 10 ppm", "setting": "[1]", "value": 100, "unit": "%"},
      {"measurement": "pest or weed control at 0.5 mg/pot", "setting": "Ggt", "value": 4, "unit": "%"}
    ]},
    {"smiles": "CCNC(=O)c1cc([Si](C)(C)C)sc1[Si](C)(C)C", "note": "[Example 269, N-Ethyl-2,5-bis(trimethylsilyl)-3-thiophenecarboxamide]", "values": [
      {"measurement": "inhibition at 0.1 ppm", "setting": "[1]", "value": "< 0", "unit": "%"},
      {"measurement": "inhibition at 1 ppm", "setting": "[1]", "value": 91, "unit": "%"},
      {"measurement": "inhibition at 10 ppm", "setting": "[1]", "value": 100, "unit": "%"},
      {"measurement": "pest or weed control at 0.5 mg/pot", "setting": "Ggt", "value": 4, "unit": "%"}
    ]}
  ]
}
